This is an account of results in BindingDB's records for doi:10.1124/jpet.104.074864 (University of Piemonte Orientale, 2005).

Usually Ki stands for the equilibrium dissociation constant of an inhibitor or competing ligand from its target. A high value points to lower affinity.

Assay [1] deals with T1, Fatty-acid amide hydrolase 1 [30-579] (Rattus norvegicus, UniProt P97612).
T1 construct: 30-579
T1 sequence (P97612 whole entry): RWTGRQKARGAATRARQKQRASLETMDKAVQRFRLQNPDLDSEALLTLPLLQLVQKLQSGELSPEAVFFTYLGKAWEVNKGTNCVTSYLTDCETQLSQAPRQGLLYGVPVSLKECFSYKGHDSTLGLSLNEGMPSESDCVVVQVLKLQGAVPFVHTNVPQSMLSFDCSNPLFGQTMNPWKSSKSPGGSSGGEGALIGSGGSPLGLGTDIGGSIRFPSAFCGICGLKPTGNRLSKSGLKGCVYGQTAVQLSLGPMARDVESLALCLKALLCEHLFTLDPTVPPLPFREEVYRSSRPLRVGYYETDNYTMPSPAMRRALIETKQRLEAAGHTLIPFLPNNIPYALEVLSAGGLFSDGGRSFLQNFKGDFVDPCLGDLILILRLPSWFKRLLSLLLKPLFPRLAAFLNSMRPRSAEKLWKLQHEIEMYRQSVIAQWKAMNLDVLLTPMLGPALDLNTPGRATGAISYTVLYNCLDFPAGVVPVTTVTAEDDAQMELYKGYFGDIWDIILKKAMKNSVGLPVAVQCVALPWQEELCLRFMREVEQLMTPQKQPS

In assay [2] the target is Cannabinoid receptor 2 (Homo sapiens, UniProt P34972).
Sequence of Cannabinoid receptor 2 (P34972 whole entry): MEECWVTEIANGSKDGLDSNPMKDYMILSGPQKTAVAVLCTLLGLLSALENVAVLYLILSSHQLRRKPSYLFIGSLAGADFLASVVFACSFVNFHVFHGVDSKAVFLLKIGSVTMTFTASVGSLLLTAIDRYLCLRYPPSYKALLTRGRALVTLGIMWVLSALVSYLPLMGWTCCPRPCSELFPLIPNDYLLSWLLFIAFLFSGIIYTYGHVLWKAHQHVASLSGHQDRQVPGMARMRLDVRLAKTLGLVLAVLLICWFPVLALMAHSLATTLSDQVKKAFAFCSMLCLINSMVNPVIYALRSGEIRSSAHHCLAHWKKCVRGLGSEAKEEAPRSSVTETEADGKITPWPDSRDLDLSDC
The target in assay [3] is Cannabinoid receptor 1 (Homo sapiens, UniProt P21554).
Sequence of Cannabinoid receptor 1 (P21554 whole entry): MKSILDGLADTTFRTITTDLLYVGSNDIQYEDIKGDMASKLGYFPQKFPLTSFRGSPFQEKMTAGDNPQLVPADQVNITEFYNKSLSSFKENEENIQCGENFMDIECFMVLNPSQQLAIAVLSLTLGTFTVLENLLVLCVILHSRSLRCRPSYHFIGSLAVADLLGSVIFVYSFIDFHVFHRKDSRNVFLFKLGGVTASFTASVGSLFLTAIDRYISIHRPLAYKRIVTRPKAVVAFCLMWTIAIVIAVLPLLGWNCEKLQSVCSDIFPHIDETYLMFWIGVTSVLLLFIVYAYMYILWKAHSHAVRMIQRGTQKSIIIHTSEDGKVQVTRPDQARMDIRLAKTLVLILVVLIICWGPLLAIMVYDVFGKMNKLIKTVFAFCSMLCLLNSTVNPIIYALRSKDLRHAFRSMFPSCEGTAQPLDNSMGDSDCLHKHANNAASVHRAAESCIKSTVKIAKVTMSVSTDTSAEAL

On to `CCCCCC[C@@H](O)CC=CCCCCCCCC(=O)NCc1ccc(O)c(OC)c1` [Rinvanil], for which the Ki in assay [1], in assay [2] and in assay [3] was over 10 µM each time.

For the molecule `CCCCCC[C@H](CC=CCCCCCCCC(=O)NCc1cc(OC)c(O)cc1I)OC(=O)Cc1ccccc1` [PhAR, 6-I], the values for the Ki in assay [1], in assay [2] and in assay [3] were over 10 µM, 2.2 µM and 2.5 µM, respectively.

For the molecule `CCCCCC[C@H](CC=CCCCCCCCC(=O)NCc1ccc(O)c(OC)c1)OC(=O)Cc1ccccc1` [PhAR], the Ki in assay [1] was over 10 µM; in assay [2], 0.3 µM; in assay [3], 2.2 µM.

For `CCCCCCC(CCCCCCCCCCC(=O)NCc1ccc(O)c(OC)c1)OC(=O)Cc1ccccc1` (stereo not given) [PhAR, Di-hydro], the values for the Ki in assay [1], in assay [2] and in assay [3] were over 10 µM, 1.1 µM and 5 µM, respectively.

In the case of `CCCCCCC(C/C=C/CCCCCCCC(=O)NCc1ccc(O)c(OC)c1)OC(=O)Cc1ccccc1` (stereo not drawn) [PhAR, ent], the values for the Ki in assay [1], in assay [2] and in assay [3] were over 10 µM, 0.4 µM and 2.4 µM, respectively.

As for `CCCCCC[C@H](CC=CCCCCCCCC(=O)NCc1ccc(O)c(OC)c1)OC(=O)CCc1ccccc1` [Rinvanil, Phenyl-propionyl], the Ki in assay [1] is over 10 µM.

For `CCCCCCCCC=CCCCCCCCC(=O)NCc1ccc(O)c(OC)c1` [CAS_58493-49-5], the Ki in assay [1], in assay [2] and in assay [3] was over 10 µM throughout.

In the case of `CCCCCC[C@H](CC=CCCCCCCCC(=O)NCc1ccc(O)c(OC)c1)OC(C)=O` [Rinvanil, Acetyl], the Ki in assay [1], in assay [2] and in assay [3] was over 10 µM each time.

For `CCCCCC[C@H](CC=CCCCCCCCC(=O)NCc1cc(I)c(O)c(OC)c1)OC(=O)Cc1ccccc1` [PhAR, 5-I], the Ki was over 10 µM in assay [1], 1.5 µM in assay [2] and 5 µM in assay [3].

Turning to `CCCCCC[C@H](CC=CCCCCCCCC(=O)NCc1ccc(O)c(OC)c1)OC(=O)c1ccccc1` [Rinvanil, Benzoil], the Ki in assay [1] is over 10 µM; in assay [2] it was 1.4 µM; in assay [3] it was 1.3 µM.

For `COc1cc(CNC(=O)CCCCC=CC(C)C)ccc1O` [CAS_404-86-4], the inhibition constant (Ki) in assay [1] and in assay [2] was over 10 µM throughout.
